Data reported in patent US20230048366A1, “COMBINATION THERAPY FOR TREATING OR PREVENTING CANCER” (4D Pharma Research Limited, priority 2018, published 2023).

What was measured:
RENCA tumour cells = test: Antitumor activity, RENCA model (tumour volume); assay type: in vivo, mouse; conditions: D18 and D22, compared to untreated and vehicle groups, FIG. 3B
Procedure: Treatment schedule—The start of first dosing was considered as D0. On D0, non-engrafted mice were randomized according to their individual body weight into groups of 9 mice using Vivo Manager® software (Biosystemes, Couternon, France). On D0, the mice received vehicle (culture medium) or bacterial strain (2×10^8 in 200 μL, PO). On D14, all mice were engrafted with RENCA tumour cells injected SC into the ventral surface of the lower flank as described below. Treatment with anti-CTLA-4 (10 mg/kg, IP) and anti-PDL1 (clone 10F.9G2, 10 mg/kg) was initiated when tumours reached a volume of 50-70 mm3.
Orthotopic induction of RENCA tumor cells in animals by SC injection—On D14, one million (1×10^6) RENCA tumor cells in 50 μL RPMI 1640 medium were transplanted via SC injection into the ventral surface of the lower flank of mice.
Euthanasia—Each mouse was euthanized when it reached a humane endpoint as described in section below, or after a maximum of 6 weeks post start of dosing.
Evaluation of tumour burden at euthanasia—At the time of termination, tumours were collected and their volume evaluated.
Clinical monitoring—The length and width of the tumour was measured twice a week with callipers and the volume of the tumour was estimated by this formula [52]: […]

immature dendritic cells = test: Cytokine production in immature dendritic cells; assay type: cell-based; conditions: MRX518 10^7/ml, LPS 100 ng/ml
Procedure: This study tested the effect of the bacterial strain MRX518 alone and in combination with lipopolysaccharide (LPS) on cytokine production in immature dendritic cells.
A monocyte population was isolated from peripheral blood mononuclear cells (PBMCs). The monocyte cells were subsequently differentiated into immature dendritic cells. The immature dendritic cells were plated out at 200,000 cells/well and incubated with MRX518 at a final concentration of 10^7/ml, with the optional addition of LPS at a final concentration of 100 ng/ml. The negative control involved incubating the cells with RPMI media alone and positive controls incubated the cells with LPS at a final concentration of 100 ng/ml. The cytokine content of the cells was then analysed.

[1] = compared to the negative control, FIGS. 4a-d

CC(=O)O[C@H]1C(=O)[C@@]2(C)[C@H]([C@H](OC(=O)c3ccccc3)[C@]3(O)C[C@H](OC(=O)[C@H](O)[C@@H](NC(=O)c4ccccc4)c4ccccc4)C(C)=C1C3(C)C)[C@]1(OC(C)=O)CO[C@@H]1C[C@@H]2O [Paclitaxel]
tumour size (RENCA tumour cells): (almost) complete reduction in tumour size

lipopolysaccharide [LPS]
level of IL-1β (immature dendritic cells; FIGS. 4b, 4d): not IL-1β | level of IL-6 (immature dendritic cells; [1]): increase | level of TNF-α (immature dendritic cells; [1]): increase
